Experiments:
microbial growth = details: lowest tested concentration (1:2000, 44 ppm boric acid, 7.5 ppm boron); HVO and RME with lake water; initial results
Description: 20 samples were prepared, 10×50 g of each fuel type, HVO and RME respectively. For each fuel type, there were four boron concentrations and a reference. One of each concentration and fuel was placed in a heating chamber at 45° C. and in front of a window subjected to sunlight. Water was taken from a lake nearby and stored in the heat chamber for an amount of time to enhance microorganism content and activity. 15 g of lake water was added to each sample, and the contaminated samples stored one week in 45° C. and exposed to sunlight. A stable solution of inorganic boron in ethanol was added to each sample in different dilutions, corresponding to the theoretical concentrations in the samples shown in table 3: [table]

[1] = based on available in vitro data; SCCS opinion 2010; cited from earlier work

SMILES: OB(O)O [boric acid]
- effect on microbial growth in contaminated samples (microbial growth): marked effect
- mutagenicity [1]: non-mutagenic

— US10954461B2, “Methods for preventing microbial growth and microbiologically influenced corrosion in a biodegradable and/or renewable fuel, hydraulic fluid and/or lubricant” (TRIBORON INTERNATIONAL AB, priority 2016, dated 2021)
